{"source": "patent US10849865B2", "about": "“Method of reducing neuronal cell death with haloalkylamines” (THE UNIVERSITY OF MONTANA, priority 2013, dated 2020)", "key": {"[1]": {"system": "rat hippocampal slice cultures exposed to oxygen-glucose deprivation (OGD)", "experiment": "Rat hippocampal slice culture oxygen-glucose deprivation (RHSC-OGD) model, propidium iodide staining", "type": "cell-based", "description": "All experimental animal procedures were approved by the University of Montana Institutional Animal Care and Use Committee in accordance with National Institutes of Health guide for the care and use of Laboratory animals (NIH Publications No. 8023). Hippocampal slice cultures were prepared from the brains of 7-day-old Sprague-Dawley rat pups as previously described (Selkirk et al., 2005, Eur J Neur 21:2291). After 7 days in culture, slices were exposed to oxygen-glucose deprivation (OGD). A glucose free balanced salt solution (BSS) composed of 120 mM NaCl, 5 mM KCl, 1.25 mM NaH2PO4, 2 mM MgSO4, 2 mM CaCl2, 25 mM NaHCO3, 20 mM HEPES, 25 mM sucrose; pH 7.3 was bubbled for one hour with 5% CO2/95% N2 at 10 L/hour. Slices were washed 6 times in deoxygenated SBSS to remove residual glucose, transferred into deoxygenated SBSS, and placed in a 37° C. chamber (Pro-Ox) with an oxygen feedback sensor that maintained gas levels at 0.1% O2, 5% CO2, 94.4% Nitrogen for 60 min. After OGD, the slices were immediately transferred back into pre-warmed Neurobasal media (containing B27 without anti-oxidants) under normal oxygen conditions. […] Neuronal damage was determined by staining slices with propidium iodide (PI; Molecular Probes, Eugene, Oreg.) and quantifying the relative fluorescence intensity (excitation 540/emission 630) using ImagePro Plus software (Media Cybernetics, Silver Springs, Md.). Propidium iodide […] was added to the media at a concentration of 2 μM (Noraberg et al., 1999, Brain Research Protocols 3:278), 4 hours prior to OGD. Images were taken of the hippocampal slices prior to OGD to establish baseline fluorescence. After OGD, slices were placed in normal media containing 2 μM PI and imaged again at 24 hours post-OGD using fluorescence optics with an Olympus IMT-2 microscope and a Hamamatsu camera. The total fluorescent intensity in each slice was determined using ImagePro Plus software (Media Cybernetics, Silver Springs, Md.) and all values were expressed as the percent change from untreated slices exposed to OGD."}, "[2]": {"system": "rat lateral fluid percussion injury (LFP) model of severe TBI", "experiment": "Neurological severity scoring (NSS) after severe TBI (lateral fluid percussion)", "type": "in vivo", "description": "Assessments were conducted on days 1, 7, 14, 21, and 30 by a blinded observer. Animals were scored from 0-16 with 0 indicating no impairment, and 16 indicating maximal impairment. Scoring criteria for a severe TBI was 16-10, a moderate TBI was 9-5 and a mild TBI was 4-1. Animals scoring and NSS of 9 or less on day 1 were identified as having a moderate/mild injury and were excluded.\n(§1) We selected the test dose for phenoxybenzamine based on current FDA approved levels. […] Assuming a typical adult weighs 70 kg, this represents 1.7 mg/kg body weight. Therefore, we selected a slightly lower, single, intravenous dose of 1 mg/kg body weight. This dose was administered at the clinically relevant time point of 8 hours after severe TBI. Therapeutic effectiveness was determined based on behavioral and cognitive outcomes."}, "[3]": {"system": "rat lateral fluid percussion injury (LFP) model of severe TBI", "experiment": "Foot fault assessment after severe TBI (lateral fluid percussion)", "type": "in vivo", "description": "Briefly, rats were set on an elevated grid. With each weight-bearing step, the paw may fall or slip off the wire grid. Each time the left forelimb (affected by damage to the right hemisphere) missed a placement on the wire rack it was recorded as a foot fault. The total number of steps (movement of each forelimb) that the rat used to cross the grid was counted, and the total numbers of foot faults for each forelimb was recorded.\nas §1"}, "[4]": {"system": "rat lateral fluid percussion injury (LFP) model of severe TBI", "experiment": "Morris water maze (MWM) cognitive function after severe TBI", "type": "in vivo", "description": "The Morris water maze (MWM) was used to assess the impact of phenoxybenzamine on cognitive function (learning and memory) following TBI. […] Pre-acclimation began on day 24 post-TBI. The training phase began on day 25 post-injury, and the probe trial was conducted on day 30 post-injury."}, "[5]": {"system": "α-1 and α-2 adrenergic receptors", "conditions": "with secondary α-2 antagonism; cited from earlier work"}, "α-1 receptors": {"system": "α-1 receptors", "conditions": "8 days after a single administration; cited from earlier work"}, "[6]": {"system": "α-1 and α-2 adrenergic receptors", "conditions": "following intravenous administration; cited from earlier work"}, "[7]": {"conditions": "stuffy nose, mild drowsiness, blurred vision, and upset stomach; cited from earlier work"}, "calmodulin (CaM)/CaMKII": {"molecular_target": "calmodulin (CaM)/CaMKII (Homo sapiens, UniProt P0DP23)", "conditions": "cited from earlier work"}, "CCL2": {"system": "CCL2", "experiment": "Gene array analysis of cortical tissue after severe TBI: CCL2", "conditions": "32 hours after the injury (treatment at 8 hours + 24 hours); versus uninjured controls", "excerpt": "(§2) For experiments requiring TBI, a rat model was used. Male Wistar rats (350-500 g) were obtained from Charles River Laboratories (Wilmington, Mass.) and housed with a 12-hour light/dark cycle and ad libitum access to food and water. Severe TBI was induced using the lateral fluid percussion (LFP) procedure as previously described (Rau et al., 2012, J Trauma and Acute Care Surgery 73:S165). Briefly, a 5 mm trephination was made over the right hemisphere equidistant from the lambda and the bregma. Animals were given a fluid pulse to the brain at 1.9-2.3 atm of pressure for 20 msec. All animals experienced apnea and were manually ventilated until normal breathing occurred. […] Saline treated animals underwent the same tail vein injection procedure receiving only pre-warmed saline.\n(§3) This time point was chosen in an effort to detect possible gene changes that would affect the development of secondary damage."}, "IL-1β": {"system": "IL-1β", "experiment": "Gene array analysis of cortical tissue after severe TBI: IL-1β", "conditions": "32 hours after the injury (treatment at 8 hours + 24 hours); versus uninjured controls", "excerpt": "as §2, §3"}, "MyD88": {"system": "MyD88", "experiment": "Gene array analysis of cortical tissue after severe TBI: MyD88", "conditions": "32 hours after the injury (treatment at 8 hours + 24 hours); versus uninjured controls", "excerpt": "as §2, §3"}, "[8]": {"conditions": "1 mg/kg body weight, over 30 days after TBI"}, "[9]": {"conditions": "1 mg/kg i.v. 8 hours after severe TBI, 24 hours or 7 days after the TBI"}, "[10]": {"conditions": "administered 8 hours after TBI, probe trial day 30 post-injury"}}, "note": "Entries after “also recorded” stand apart in the source; their conditions may differ."}
{"compound": "CC(COc1ccccc1)N(CCCl)Cc1ccccc1", "note": "(stereo not shown) [phenoxybenzamine]", "values": [{"measurement": "prevention of neuronal death from OGD (propidium iodide fluorescence)", "setting": "[1]; 100 μM added at 2, 4, and 8 hours post-OGD", "value": "prevented neuronal death from OGD in all regions of the hippocampus"}, {"measurement": "prevention of neuronal death from OGD (propidium iodide fluorescence)", "setting": "[1]; 100 μM added at 16 hours post-OGD", "value": "prevented neuronal death only in the CA1 region of the hippocampus"}, {"measurement": "neuroprotection when delivered after OGD (FIG. 2)", "setting": "[1]; delivered up to 16 hours after OGD", "value": "significant neuroprotection"}, {"measurement": "behavioral function, neurological severity score (FIG. 3A)", "setting": "[2]; [8]", "value": "significantly improved behavioral function"}, {"measurement": "NSS, difference from saline treated animals", "setting": "[2]; [9]", "value": "no significant differences"}, {"measurement": "behavioral function, foot fault assessments (FIG. 3B)", "setting": "[3]; [8]", "value": "significantly improved behavioral function"}, {"measurement": "foot fault scoring, difference from saline treated animals", "setting": "[3]; [9]", "value": "no significant differences"}, {"measurement": "learning and memory after severe TBI (FIG. 4)", "setting": "[4]; Morris water maze latency and target quadrant time", "value": "significantly improved learning and memory"}, {"measurement": "MWM learning compared to un-injured sham controls", "setting": "[4]; administered 8 hours after TBI, any of the training days", "value": "not significantly different from the un-injured sham control animals"}, {"measurement": "MWM probe trial compared to un-injured sham controls", "setting": "[4]; [10]", "value": "did not differ from un-injured sham controls"}, {"measurement": "MWM probe trial, time spent searching the target quadrant", "setting": "[4]; [10]", "value": "approximately 28%"}, {"measurement": "α-1 adrenergic antagonism", "setting": "[5]", "value": "potent α-1 adrenergic antagonist"}, {"measurement": "α-1 receptors recovered", "setting": "α-1 receptors", "value": 50, "unit": "%"}, {"measurement": "time to peak effect of receptor antagonism", "setting": "[6]", "value": "approximately 1 hour"}, {"measurement": "side effects", "setting": "[7]", "value": "minimal"}, {"measurement": "inhibition of CaM/CaMKII activity", "setting": "calmodulin (CaM)/CaMKII", "value": "potent inhibitor"}, {"measurement": "CCL2 expression in cortical tissue after severe TBI", "setting": "CCL2", "value": "no significant increase; also recorded: did not differ from uninjured controls"}, {"measurement": "IL-1β expression in cortical tissue after severe TBI", "setting": "IL-1β", "value": "no significant increase; also recorded: did not differ from uninjured controls; also recorded: did not have a significant increase"}, {"measurement": "MyD88 expression in cortical tissue after severe TBI", "setting": "MyD88", "value": "no significant increase; also recorded: did not differ from uninjured controls; also recorded: equivalent to uninjured controls"}]}
